From patent US9273017B2, “(Thio)morpholine derivatives as S1P modulators” (ABBVIE BAHAMAS LIMITED, priority 2009, dated 2016) come the findings set out here.

One series addresses T1, human S1P3 receptor (Homo sapiens, UniProt Q99500).
T1 construct: cell line established at Solvay Pharmaceuticals; host or cells: CHO K1 (CHO/Gα16/AEQ/h-S1P3)
Briefly: In vitro functional activity (agonism), CHO-human-S1P3-Aequorin assay. Format: cell-based. Particulars: for EC50: read-out: S1P3 pEC50 (converted). An excerpt:
In Vitro Functional Activity (Agonism) on Human S1P3 Receptors
The CHO-human-S1P3-Aeqorin assay (CHO/Gα16/AEQ/h-S1P3) was established at Solvay Pharmaceuticals. The plasmid DNA coding for the S1P3 receptor (accession number in GenBank NM_005226 was purchased from UMR cDNA resource Centre (Rolla, Mo.). The pcDNA3.1/hS1P3 construct carrying the mitochondrially targeted apo-Aeqorin and Gα16 protein was transfected in CHO K1 cell-line.
(§1) Human-S1P3-Aequorin cells express mitochondrial targeted apo-Aequorin. Cells have to be loaded with coelanterazine, in order to reconstitute active Aequorin. After binding of agonists to the human S1P3 receptor the intracellular calcium concentration increases and binding of calcium to the apo-Aequorin/coelenterazine complex leads to an oxidation reaction of coelenterazine, which results in the production of apo-Aequorin, coelenteramide, CO2 and light (λmax 469 nm). This luminescent response is dependent on the agonist concentration. Luminescence is measured using the MicroBeta Jet (Perkin Elmer). Agonistic effects of compounds are expressed as pEC50. Compounds were tested at a 10 points half log concentration range, and 3 independent experiments were performed in single point's measurements.

The target of a further series is T2, human S1P5 receptor (Homo sapiens, UniProt Q9H228).
T2 construct: host or cells: CHO (AequoScreen recombinant cell line, co-expressing mitochondrially targeted apo-aequorin)
T2 sequence (Q9H228 whole entry): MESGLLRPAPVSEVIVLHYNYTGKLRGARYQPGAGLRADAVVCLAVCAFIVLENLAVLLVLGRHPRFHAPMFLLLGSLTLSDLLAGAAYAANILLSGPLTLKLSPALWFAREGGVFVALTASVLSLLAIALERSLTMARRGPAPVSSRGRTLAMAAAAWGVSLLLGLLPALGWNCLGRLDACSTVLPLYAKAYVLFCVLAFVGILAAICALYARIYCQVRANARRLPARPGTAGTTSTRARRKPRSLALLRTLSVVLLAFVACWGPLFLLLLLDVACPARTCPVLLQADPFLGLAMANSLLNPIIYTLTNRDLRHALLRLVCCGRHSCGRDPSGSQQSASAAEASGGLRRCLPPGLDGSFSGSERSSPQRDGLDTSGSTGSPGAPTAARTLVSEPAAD
Briefly: In vitro functional activity (agonism), CHO-human-S1P5-Aequorin assay. The format is cell-based. As to conditions: for EC50: read-out: S1P5 pEC50 (converted).
Excerpt: In Vitro Functional Activity (Agonism) on Human S1P5 Receptors
as §1, with “The CHO-human-S1P5-Aeqorin assay was bought from Euroscreen, Brussels (Euroscreen, Technical dossier, Human Lysophospholid S1P5 (Edg8) receptor, DNA clone and CHO AequoScreen™ recombinant cell-line, catalog no: ES-593-A, September 2006). Human-S1P5-Aequorin” for “Human-S1P3-Aequorin”, “S1P5” for “S1P3”

Structures can show the parent of a compound that is named as a salt.

T1 sequence (Q99500 whole entry): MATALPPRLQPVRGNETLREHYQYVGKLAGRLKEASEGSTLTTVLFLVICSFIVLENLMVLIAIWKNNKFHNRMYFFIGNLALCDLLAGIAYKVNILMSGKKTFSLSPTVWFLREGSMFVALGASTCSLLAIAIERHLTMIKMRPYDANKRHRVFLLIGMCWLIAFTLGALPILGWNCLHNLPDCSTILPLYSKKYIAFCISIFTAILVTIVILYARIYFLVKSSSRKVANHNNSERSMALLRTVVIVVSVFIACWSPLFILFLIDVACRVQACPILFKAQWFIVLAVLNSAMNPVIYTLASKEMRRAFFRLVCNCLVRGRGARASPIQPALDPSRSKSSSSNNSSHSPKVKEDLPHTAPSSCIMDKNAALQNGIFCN

With `CCCCCCCCOc1ccc(C2CN(CCP(=O)(O)O)CCO2)cc1` (centres unmarked) [Compound 137, {2-[2-(4-Octyloxy-phenyl)-morpholin-4-yl]-ethyl}-phosphonic acid], the EC50 is 501 nM on human S1P3 receptor and 100 nM on human S1P5 receptor.
`CCCCCCCCOc1ccc(C2CN(CCC(=O)O)C(C)(C)CO2)cc1` (centres unmarked) [Compound 187, 3-[5,5-Dimethyl-2-(4-octyloxy-phenyl)-morpholin-4-yl]-propionic acid hydrochloride]: the values for the EC50 at human S1P3 receptor and at human S1P5 receptor were 3160 nM and 794 nM, respectively.
In the case of `Cc1ccc(COc2ccc(C3CN(CCC(=O)O)CCO3)cc2)c(Cl)c1` (centres unmarked) [Compound 196, 3-{2-[4-(2-Chloro-4-methyl-benzyloxy)-phenyl]-morpholin-4-yl}-propionic acid hydrochloride], at human S1P5 receptor, the EC50 is 1000 nM.
As usually defined, the melting point is the temperature of the solid-liquid transition. For `COc1cc(C2CN(CCC(=O)O)CCO2)ccc1OCc1c(F)cccc1Cl.Cl` (centres unmarked), the melting point was 169 to 171 °C.
Consider `Cc1cc(OCc2ccc(C(C)(C)C)cc2)ccc1C1CN(CCC(=O)O)CCO1` (centres unmarked) [Compound 127, 3-{2-[4-(4-tert-Butyl-benzyloxy)-2-methyl-phenyl]-morpholin-4-yl}-propionic acid], for which the values for the EC50 at human S1P3 receptor and at human S1P5 receptor were over 10000 nM and 631 nM, respectively.
Turning to `Cl.O=C(O)CCN1CCOC(c2ccc(OCc3ccccc3C(F)(F)F)cc2F)C1` (centres unmarked), the melting point lay in the range of 201 to 201.5 °C.
Consider `Cc1cc(OCc2cccc(OCc3ccccc3)c2)ccc1C1CN(CCC(=O)O)CCO1` (centres unmarked) [Compound 100, 3-{2-[4-(3-Benzyloxy-benzyloxy)-2-methyl-phenyl]-morpholin-4-yl}-propionic acid], for which the figures for the EC50 at human S1P3 receptor and at human S1P5 receptor were over 10000 nM and 3980 nM, respectively.
In the case of `CCc1cc(Cl)c(COc2ccc(C3CN(CCC(=O)O)CCO3)cc2)c(Cl)c1` (centres unmarked) [Compound 164, 3-{2-[4-(2,6-Dichloro-4-ethyl-benzyloxy)-phenyl]-morpholin-4-yl}-propionic acid hydrochloride], the EC50 was 2000 nM on human S1P3 receptor and 316 nM on human S1P5 receptor.
As to `CCCc1cc(Cl)c(COc2ccc(C3CN(CCC(=O)O)CCO3)cc2)c(Cl)c1.Cl` (centres unmarked), the melting point lay in the range of 101 to 103 °C.
Still for that read-out and setting: then `CC#Cc1cc(Cl)c(COc2ccc(C3CN(CCC(=O)O)CCO3)cc2)c(Cl)c1.Cl` (centres unmarked), with 220 to 224 °C.
For the molecule `O=C(O)CCN1CCOC(c2ccc(C(=O)Nc3c(Cl)cccc3Cl)cc2)C1` (centres unmarked) [Compound 53, 3-{2-[4-(2,6-Dichloro-phenylcarbamoyl)-phenyl]-morpholin-4-yl}-propionic acid hydrochloride], the values for the EC50 at human S1P3 receptor and on human S1P5 receptor were over 10000 nM and 2000 nM, respectively.
`Cl.O=C(O)CCN1CCOC(c2ccc(OCc3c(Cl)cccc3Cl)cc2C(F)(F)F)C1` (centres unmarked) returned a melting point of 195 to 197 °C.
In the case of `O=C(O)CCN1CCOC(c2ccc(OCCCc3ccccc3)cc2)C1` (centres unmarked) [Compound 16, 3-{2-[4-(3-Phenyl-propoxy)-phenyl]-morpholin-4-yl}-propionic acid trifluoroacetic acid salt], the EC50 on human S1P3 receptor was 3980 nM; at human S1P5 receptor, 1000 nM.
Regarding `O=C(O)CCN1CCOC(c2ccc(OCCCc3cccc(F)c3F)cc2)C1` (centres unmarked) [Compound 174, 3-(2-{4-[3-(2,3-Difluoro-phenyl)-propoxy]-phenyl}-morpholin-4-yl)-propionic acid hydrochloride], the results for the EC50 on human S1P3 receptor and on human S1P5 receptor were 5010 nM and 1580 nM, respectively.
For `Cl.O=C(O)CCN1CCSC(c2ccc(OCc3ccccc3Cl)cc2)C1` (centres unmarked), the melting point lay within 178 to 182 °C.
`CC(C)c1cccc(Cl)c1COc1ccc(C2CN(CCC(=O)O)CCO2)c(C(F)(F)F)c1.Cl` (centres unmarked) had a melting point of 206 to 210 °C.
On the same count and under the same terms, then `Cl.O=C(O)CCN1CCOC(c2cccc(OCc3ccccc3)c2)C1` (centres unmarked), with 222 to 225 °C.
Regarding `Cc1cc(OCc2ccc3ccccc3c2)ccc1C1CN(CCC(=O)O)CCO1` (centres unmarked) [Compound 76, 3-{2-[2-Methyl-4-(naphthalen-2-ylmethoxy)-phenyl]-morpholin-4-yl}-propionic acid], the EC50 at human S1P3 receptor was over 10000 nM; on human S1P5 receptor, 2510 nM.
On to `Cl.O=C(O)CCN1CCOC(c2ccc(OCc3c(F)cccc3Cl)cc2C(F)(F)F)C1` (centres unmarked), for which the melting point was in the range of 171.5 to 172.5 °C.
`Cl.O=C(O)CCN1CCOC(c2ccc(OCc3cccc(C(F)(F)F)c3)cc2C(F)(F)F)C1` (centres unmarked) returned a melting point of 209 to 211 °C.
Molecule `CCc1cccc(Cl)c1COc1ccc(C2CN(CCC(=O)O)CCO2)c(C(F)(F)F)c1.Cl` (centres unmarked) came in with a melting point of 214 to 215 °C.
`Cl.O=C(O)CCN1CCOC(c2cccc(OCc3c(Cl)cccc3Cl)c2)C1` (centres unmarked): the melting point was in the range of 229 to 230 °C.
As to `Cl.O=C(O)CCN1CCOC(c2ccc(OCc3c(Cl)cccc3OC(F)(F)F)cc2C(F)(F)F)C1` (centres unmarked), the melting point was 179 to 182 °C.
In turn, `Cl.O=C(O)CCN1CCOC(c2ccc(OCc3c(Cl)cccc3C(F)(F)F)cc2C(F)(F)F)C1` (centres unmarked) returned a melting point of 200 to 201 °C.
Turning to `O=C(O)CCN1CCOC(c2ccc(OCc3c(Cl)cccc3Cl)c(C(F)(F)F)c2)C1` (centres unmarked) [Compound 131, 3-{2-[4-(2,6-Dichloro-benzyloxy)-3-trifluoromethyl-phenyl]-morpholin-4-yl}-propionic acid trifluoroacetic acid salt], the EC50 is over 10000 nM on human S1P3 receptor and 1000 nM on human S1P5 receptor.
Consider `Cc1cc(OCC2CCC3CC2C3(C)C)ccc1C1CN(CCC(=O)O)CCO1` (centres unmarked) [Compound 84, 3-{2-[4-(6,6-Dimethyl-bicyclo[3.1.1]hept-2-ylmethoxy)-2-methyl-phenyl]-morpholin-4-yl}-propionic acid], for which the EC50 on human S1P3 receptor was over 10000 nM; on human S1P5 receptor it was 3980 nM.
For `COc1cc(C2CN(CCC(=O)O)CCO2)ccc1OCc1c(Cl)cccc1Cl.Cl` (centres unmarked), the melting point was 214 to 216 °C.
Still for that read-out and setting: then `Cl.O=C(O)CCN1CCOC(c2ccc(OCc3c(F)cccc3Cl)cc2F)C1` (centres unmarked), with 189 to 190 °C; and `CC(C)c1cc(Cl)c(COc2ccc(C3CN(CCC(=O)O)CCO3)cc2)c(Cl)c1.Cl` (centres unmarked), with 108 to 110 °C.
For `O=C(O)CCN1CCOC(c2ccc(OCC3CCCCC3)cc2)C1` (centres unmarked) [Compound 24, 3-[2-(4-Cyclohexylmethoxy-phenyl)-morpholin-4-yl]-propionic acid trifluoroacetic acid salt], the EC50 on human S1P3 receptor is over 31600 nM; at human S1P5 receptor, 631 nM.
Take “3-{2-[4-(2,6-Dichloro-benzyloxy)-phenyl]-morpholin-4-yl}-2,2-di-fluoro-propionic acid triethylammonium salt [Compound 150]”: the “S1P3 pEC50” value on human S1P3 receptor was under 5.0. Besides, on human S1P5 receptor, the “S1P5 pEC50” value worked out at 6.2.
Consider `O=C(O)CCN1CCOC(c2ccc(OC3CCc4ccccc43)cc2)C1` (centres unmarked) [Compound 219, 3-{2-[4-(Indan-1-yloxy)-phenyl]-morpholin-4-yl}propionic acid], for which the melting point was 124 to 129.5 °C.
The molecule `Cl.O=C(O)CCN1CCOC(c2ccc(OCc3ccccc3C(F)(F)F)c(Cl)c2)C1` (centres unmarked) had a melting point of 199 to 201 °C.
For the molecule `Cc1cc(OCc2cccc(Oc3ccccc3)c2)ccc1C1CN(CCC(=O)O)CCO1` (centres unmarked) [Compound 92, 3-{2-[2-Methyl-4-(3-phenoxy-benzyloxy)-phenyl]-morpholin-4-yl}-propionic acid], the results for the EC50 at human S1P3 receptor and at human S1P5 receptor were over 10000 nM and 5010 nM, respectively.
Regarding `CCCCc1ccc(COc2ccc(C3CN(CCC(=O)O)CCO3)c(C)c2)cc1` (centres unmarked) [Compound 117, 3-{2-[4-(4-Butyl-benzyloxy)-2-methyl-phenyl]-morpholin-4-yl}-propionic acid], the EC50 was over 10000 nM at human S1P3 receptor and 3980 nM at human S1P5 receptor.
For `O=C(O)CCN1CCOC(c2ccc(OCc3c(Cl)cccc3Cl)cc2)C1` (single isomer, unassigned; (+)) [Compound 34a, (+)-3-{2-[4-(2,6-Dichloro-benzyloxy)-phenyl]-morpholin-4-yl}-propionic acid hydrochloride], in that order: over 31600 nM and 631 nM.
`Cl.O=C(O)CCN1CCOC(c2ccc(OCc3c(Cl)cccc3C3CC3)cc2C(F)(F)F)C1` (centres unmarked): the melting point was in the range of 203 to 204 °C.
Same read-out and setting: then `Cl.O=C(O)CCN1CCOC(c2cccc(OCc3ccccc3Cl)c2)C1` (centres unmarked), with 233 to 234 °C.
Consider `CCCCCCCCSc1ccc(C2CN(CCC(=O)O)CCO2)cc1` (centres unmarked) [Compound 204, 3-[2-(4-Octylsulfanyl-phenyl)-morpholin-4-yl]-propionic acid Hydrochloride], for which, on human S1P5 receptor, the EC50 is 398 nM.
In the case of `O=C(O)CCN1CCOC(c2ccc(OC3COc4ccccc43)cc2)C1` (centres unmarked) [Compound 221, 3-{2-[4-(2,3-Dihydro-benzofuran-3-yloxy)-phenyl]-morpholin-4-yl}-propionic acid], the melting point was 141.5 to 144.5 °C.
